Source: US8318725B2, “Aryl indolyl sulfonamide compounds and their use as 5-HT6 ligands” (Suven Life Sciences Limited, priority 2008, dated 2012)
Where two headings read alike, the source gives them in different places.

Key:
Human 5-HT6 receptor = biological target: T1, Human 5-HT6 receptor (Homo sapiens, UniProt P50406); assay: Binding assay for human 5-HT6 receptor ([3H] LSD radioligand); conditions: [3H] LSD 1.5 nM; human recombinant receptor in HEK293 cells
T1 construct: expressed in transfected cells; host or cells: HEK293
T1 sequence (P50406 whole entry): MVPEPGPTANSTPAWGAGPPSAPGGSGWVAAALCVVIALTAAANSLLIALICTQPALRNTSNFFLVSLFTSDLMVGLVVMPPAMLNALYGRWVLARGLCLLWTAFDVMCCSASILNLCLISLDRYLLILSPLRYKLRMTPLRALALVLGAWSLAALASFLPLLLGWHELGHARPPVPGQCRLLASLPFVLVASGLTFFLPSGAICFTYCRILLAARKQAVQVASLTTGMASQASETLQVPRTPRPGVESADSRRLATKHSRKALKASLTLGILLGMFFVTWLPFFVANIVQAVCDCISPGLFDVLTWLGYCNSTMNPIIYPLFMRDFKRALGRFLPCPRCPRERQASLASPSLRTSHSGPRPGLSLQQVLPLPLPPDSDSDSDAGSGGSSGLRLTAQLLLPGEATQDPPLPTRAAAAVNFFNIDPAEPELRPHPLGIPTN
Description: Binding Assay for Human 5-HT6 Receptor
Compounds can be tested according to the following the procedures. Materials and Methods:
Receptor source: Human recombinant expressed in HEK293 cells
Radioligand: [^3H] LSD (60-80 Ci/mmol)
Final ligand concentration—[1.5 nM]
Non-specific determinant: Methiothepin mesylate—[0.1 μM]
Reference compound: Methiothepin mesylate
Positive control: Methiothepin mesylate
Reactions were carried out in […] TRIS-HCl (pH 7.4) containing 10 μM MgCl2, 0.5 mM EDTA for 60 minutes at 37° C. The reaction was terminated by rapid vacuum filtration onto glass fiber filters. Radioactivity trapped onto the filters was determined and compared to control values in order to ascertain any interactions of test compound(s) with the cloned serotonin 5-HT6binding site.
Literature Reference: Monsma F. J. Jr., et al., Molecular Cloning and Expression of Novel Serotonin Receptor with High Affinity for Tricyclic Psychotropic Drugs. Mol. Pharmacol. (43): 320-327 (1993).

Male Wister rats = assay: Object recognition task model (NORT); format: in vivo; conditions: for NORT Discriminative Index (DI), treatment: p.o., vehicle value in brackets; for NORT Inference: at the dose tested (10 or 30 mg/kg, p.o.)
Description: Object Recognition Task Model
The cognition-enhancing properties of compounds of this invention were estimated using a model of animal cognition: the object recognition task model.
Male Wister rats (230-280 grams) obtained from N. I. N. (National Institute of Nutrition, Hyderabad, India) were used as experimental animals. Four animals were housed in each cage. Animals were kept on 20% food deprivation before one day and given water ad libitum throughout the experiment and-maintained on a 12 hours light/dark cycle. Also the rats were habituated to individual arenas for 1 hour in the absence of any objects.
One group of 12 rats received vehicle (1 mL/Kg) orally and another set of animals received compound of the formula (I) either orally or i.p., before one hour of the familiar (T1) and choice trial (T2).
The experiment was carried out in a 50×50×50 cm open field made up of acrylic. In the familiarilation phase, (T1), the rats were placed individually in the open field for 3 minutes, in which two identical objects (plastic bottles, 12.5 cm height×5.5 cm diameter) covered in yellow masking tape alone (a1 and a2) were positioned in two adjacent corners, 10 cm. from the walls. After 24 hours of the (T1) trial for long-term memory test, the same rats were placed in the same arena as they were, placed in T1 trial. Choice phase (T2) rats were allowed to explore the open field for 3 minutes in presence of one familiar object (a3) and one novel object (b) (Amber color glass'bottle, 12 cm high and 5 cm in diameter). Familiar objects presented similar textures, colors and sizes. During the T1 and T2 trial, explorations of each object (defined as sniffing, licking, chewing or having moving vibrissae whilst directing the nose towards the object at a distance of less than 1 cm) were recorded separately by stopwatch. Sitting on an object was not regarded as exploratory activity, however, it was rarely observed. T1 is the total time spent exploring the familiar objects (a1+a2). T2 is the total time spent exploring the familiar object and novel object (a3+b).
The object recognition test was performed as described by Ennaceur, A., Delacour, J., 1988, A new one-trial test for neurobiological studies of memory in rats—Behavioral data, Behay. Brain Res., 31, 47-59.
Some representative compounds have shown positive effects indicating the increased novel object recognition viz; increased exploration time with novel object and higher discrimination index.

rats = assay: Water maze, scopolamine induced reversal; format: in vivo
Description: The water maze apparatus consisted of a circular pool (1.8 m diameter, 0.6 m high) constructed in black Perspex (TSE systems, Germany) filled with water (24±2° C.) and positioned underneath a wide-angled video camera to track animal. The 10 cm^2 perspex platform, lying 1 cm below the water surface, was placed in the centre of one of the four imaginary quadrants, which remained constant for all rats. The black Perspex used in the construction of the maze and platform offered no intramaze cues to guide escape behavior. By contrast, the training room offered several strong extramaze visual cues to aid the formation of the spatial map necessary for escape, learning. An automated tracking system, [Videomot 2 (5.51), TSE systems, Germany] was employed. This program analyzes video images acquired via a digital camera and an image acquisition board that determined path length, swim speed and the number of dutation of swim time spent in each quadrant of the water maze.

[1] = Rodent pharmacokinetic study; format: in vivo, Male wistar rats; conditions: plasma, Wistar/Male rat, 10 mg/kg; for bioavailability: oral vs intravenous, read-out: Bioavailab; for Cmax / Tmax / half-life / AUC: water; for AUC: read-out: AUC1
Description: Rodent Pharmacokinetic Study Male wistar rats (230-280 grams) obtained from NIN (National Institute of Nutrition, Hyderabad, India) were used as an experimental animal. Three to five animals were housed in each cage. Animals were kept fasted over night and maintained on a 12 hours light/dark cycle. Three rats were dosed NCE (10 mg/Kg) orally and intravenously on day 0 and day 2. At each time point blood was collected by jugular vein. Plasma was stored frozen at −20° C. until analysis. The concentrations of the NCE compound in plasma were determined using LC-MS/MS method. Schedule time points: Pre dose 0.25, 0.5, 1, 1.5, 2, 3, 4, 6, 8, 10, 12 and 24 hours after dosing (n=3). The NCE compounds were quantified in plasma by validated LC-MS/MS method using solid phase extraction technique. NCE compounds were quantified in the calibration range of 2-2000 ng/mL in plasma. Study samples were analyzed using calibration samples in the batch and quality control samples spread across the batch. Pharmacokinetic parameters Cmax, Tmax, AUCt, AUCinf, half life, volume of distribution, clearance, mean residence time and thereby oral bioavailability were calculated by non-compartmental model using software WinNonlin version 5.1.

[2] = Rodent brain penetration study; format: in vivo, Male Wister rats; conditions: brain homogenate and plasma; Wistar/Male rat, 10 mg/kg, water, Oral (as in table); read-out: Steady State Brain Penetration (Cb/Cp)
[3] = system: animal models for schizophrenia; conditions: literature statement; cited from earlier work
5-HT6 receptor = conditions: literature statement; cited from earlier work

Row | Ki (Human 5-HT6 receptor) [nM] | bioavailability [1] [%] | Cmax ([1]; Intravenous) [ng/mL] | Tmax ([1]; Intravenous) [h] | half-life ([1]; Intravenous) [h] | AUC ([1]; Intravenous) [ng·h/mL] | Cmax ([1]; Oral) [ng/mL] | Tmax ([1]; Oral) [h] | half-life ([1]; Oral) [h] | AUC ([1]; Oral) [ng·h/mL] | Kp [2] | melting point [°C] | Compound | NORT Discriminative Index (DI), treatment (Male Wister rats; 10 mg/kg) | NORT Inference (Male Wister rats) | Scopolamine Induced Reversal (rats) | Activity in animal tests related to positive or negative symptoms of schizophrenia [3] | Affinity for the 5-HT6 receptor (5-HT6 receptor) | NORT Discriminative Index (DI), treatment (Male Wister rats; 30 mg/kg)
1 | 1.91 |  |  |  |  |  |  |  |  |  |  |  | CN1CCN(Cc2cccc(S(=O)(=O)n3ccc4ccccc43)c2)CC1 [Example 8, 1-[3-(4-Methylpiperazin-1-ylmethyl)benzenesulfonyl]-1H-indole] | 0.58 (0.45) | Active | ≧30 mg/kg, p.o |  |  | 
2 | 7.01 | 30 ± 7 | 4320 ± 1680 | 0.08 | 2.69 ± 1.51 | 5130 ± 1750 | 1380 ± 427 | 0.38 ± 0.18 | 7.85 ± 2.62 | 3190 ± 1750 | 2.03 ± 0.42 |  | Cc1ccc(S(=O)(=O)n2ccc3ccccc32)cc1CN1CCN(C)CC1.Cl.Cl [Example 22, 1-[4-methyl-3-(4-methylpiperazin-1-ylmethyl)benzenesulfonyl]-1H-indole dihydrochloride] | 0.57 (0.54) | Active | >30 mg/kg, p.o |  |  | 
3 |  |  |  |  |  |  |  |  |  |  |  |  | COc1ccc(NS(=O)(=O)c2sc3ccc(Cl)cc3c2C)cc1N1CCNCC1 [SB-271046, 5-Chloro-N-(4-methoxy-3-piperazin-1-ylphenyl)-3-methyl-2-benzothiophenesulfonamide] |  |  |  | inactive |  | 
4 |  |  |  |  |  |  |  |  |  |  |  |  | CN1CCN2c3ccccc3Cc3ccccc3C2C1 (centres unmarked) [mianserin] |  |  |  |  | high affinity | 
5 |  |  |  |  |  |  |  |  |  |  |  |  | CN(C)CCC=C1c2ccccc2CCc2ccccc21 [amitriptyline] |  |  |  |  | high affinity | 
6 | 3.96 | 14 ± 10 | 4680 ± 617 | 0.08 | 6.25 ± 0.35 | 4070 ± 888 | 749 ± 836 | 0.5 ± 0.43 | 3.18 ± 1.71 | 1170 ± 1050 | 0.53 ± 0.13 | 250.13 | CCN1CCN(Cc2cc(S(=O)(=O)n3ccc4ccccc43)ccc2C)CC1.Cl.Cl [Example 23, 1-[4-methyl-3-(4-ethylpiperazin-1-ylmethyl)benzenesulfonyl]-1H-indole dihydrochloride] |  | Active | ≧30 mg/kg, p.o |  |  | 0.58 (0.49)
7 | 5.45 | 10 ± 6 | 481 ± 331 | 0.08 | 5.84 ± 2.21 | 808 ± 156 | 106 ± 1 | 0.38 ± 0.18 | 1.73 ± 0.56 | 342 ± 152 | 1.61 ± 0.39 | 216.9 to 218.7 | Cc1cn(S(=O)(=O)c2ccc(Cl)c(CN3CCN(C)CC3)c2)c2ccccc12.Cl.Cl [Example 35, 1-[4-Chloro-3-(4-methylpiperazin-1-ylmethyl)benzenesulfonyl]-3-methyl-1H-indole dihydrochloride] |  | Active | >30 mg/kg, p.o |  |  | 0.63 (0.49)
8 | 9.11 |  |  |  |  |  |  |  |  |  |  | 210.5 to 213 | Cc1cn(S(=O)(=O)c2ccc(Br)c(CN3CCN(C)CC3)c2)c2ccccc12.Cl.Cl [Example 38, 1-[4-Bromo-3-(4-methylpiperazin-1-ylmethyl)benzenesulfonyl]-3-methyl-1H-indole dihydrochloride] |  |  |  |  |  | 
